Experimental data: PubChem BioAssay AID588677 (The Scripps Research Institute Molecular Screening Center, 2011)
Active and inactive are the calls of the source.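 How the source made its calls: active means phosphorylated EGFR protein level shifted down or up by at least 30% versus solvent-only treated cells; inactive means shift under 30% in either direction.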

Molecular target: Epidermal growth factor receptor (Homo sapiens) (UniProt P00533)
Assay: phospho-EGFR protein level reduction, late-stage follow-up, counter-screen for KLF5 inhibitor project, SW620 cells, chemiluminescent western blot, powder samples (AID 588677)
Conditions: p-EGFR western blot, 24 h, at 10 µM; for fold change: measured here: p-EGFR band fold change vs DMSO

Chain of Epidermal growth factor receptor (Homo sapiens) (P00533 whole entry, looked up): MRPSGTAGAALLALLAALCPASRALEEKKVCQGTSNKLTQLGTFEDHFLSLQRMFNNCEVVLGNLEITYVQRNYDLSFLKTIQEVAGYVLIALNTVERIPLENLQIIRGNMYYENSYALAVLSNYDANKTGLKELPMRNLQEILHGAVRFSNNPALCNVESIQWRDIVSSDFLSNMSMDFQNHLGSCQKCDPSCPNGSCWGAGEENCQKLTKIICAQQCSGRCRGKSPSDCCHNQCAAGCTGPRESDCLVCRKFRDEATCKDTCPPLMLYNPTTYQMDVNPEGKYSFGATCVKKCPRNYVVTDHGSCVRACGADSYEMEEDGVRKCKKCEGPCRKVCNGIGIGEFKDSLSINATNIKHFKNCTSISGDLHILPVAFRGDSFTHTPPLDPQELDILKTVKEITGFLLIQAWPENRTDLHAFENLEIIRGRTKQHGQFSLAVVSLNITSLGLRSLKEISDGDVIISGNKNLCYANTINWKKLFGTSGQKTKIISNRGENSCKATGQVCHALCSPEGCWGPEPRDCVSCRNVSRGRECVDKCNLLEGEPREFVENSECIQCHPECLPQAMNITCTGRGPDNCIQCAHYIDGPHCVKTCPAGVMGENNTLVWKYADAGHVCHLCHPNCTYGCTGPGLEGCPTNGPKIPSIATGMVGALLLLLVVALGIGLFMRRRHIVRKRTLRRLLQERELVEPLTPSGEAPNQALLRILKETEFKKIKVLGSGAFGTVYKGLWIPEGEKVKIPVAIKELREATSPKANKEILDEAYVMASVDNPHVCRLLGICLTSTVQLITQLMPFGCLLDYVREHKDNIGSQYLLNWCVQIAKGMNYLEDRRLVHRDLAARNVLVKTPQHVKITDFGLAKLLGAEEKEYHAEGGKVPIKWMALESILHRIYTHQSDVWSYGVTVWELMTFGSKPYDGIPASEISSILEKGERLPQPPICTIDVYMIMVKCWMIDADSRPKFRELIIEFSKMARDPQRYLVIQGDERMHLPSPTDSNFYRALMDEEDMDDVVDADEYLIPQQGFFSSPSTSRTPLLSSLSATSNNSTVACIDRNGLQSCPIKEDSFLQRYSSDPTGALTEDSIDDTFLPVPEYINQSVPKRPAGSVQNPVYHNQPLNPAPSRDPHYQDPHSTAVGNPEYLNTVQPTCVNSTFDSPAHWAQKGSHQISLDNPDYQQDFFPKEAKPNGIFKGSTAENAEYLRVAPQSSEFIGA

With `CN(C(=O)CNC(=O)/C=C/c1cccc(Cl)c1)C1CCS(=O)(=O)C1` (stereo not given) the inhibition was 20% (inactive) and the fold change was -1.25.

`CN(C(=O)CNC(=O)/C=C/c1cccc(Cl)c1)C1CCS(=O)(=O)CC1` gave a fold change of 14.2.

`CN(C(=O)COC(=O)/C=C/c1cccc([N+](=O)[O-])c1)C1CCS(=O)(=O)C1` (stereo not given) gave an inhibition of -71.5% and a fold change of 1.72.
